Legend:
[1] = system: Hepatotoxicity;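 on HepSE bilirubinemia: bilirubinemia hepatic side effect score drawn from the DILIps training data, a prediction system for drug-induced liver injury; call rule not given here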;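 on HepSE cholecystitis: Cholecystitis-related hepatic side effect score drawn from the DILIps (drug-induced liver injury prediction) training data set; call rule not given here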;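 on HepSE cholelithiasis: hepatic side effect score for cholelithiasis, drawn from the DILIps training data for predicting drug-induced liver injury; call rule not given here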;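 on HepSE cirrhosis: cirrhosis hepatic side effect score taken from the DILIps (drug-induced liver injury prediction) training set; call rule not given here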;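 on HepSE elevated liver function tests: hepatic side effect score for raised liver function tests, as recorded in the DILIps training set used for predicting drug-induced liver injury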; on HepSE hepatic failure: call rule not given here;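 on HepSE hepatomegaly: hepatic side effect score for hepatomegaly, taken from the training set of the DILIps drug-induced liver injury prediction system; call rule not given here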
[2] = system: Hepatotoxicity; remark: listed apart in the source;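 on HepSE bilirubinemia: bilirubinemia hepatic side effect score drawn from the DILIps training data, a prediction system for drug-induced liver injury; call rule not given here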;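 on HepSE cholecystitis: Cholecystitis-related hepatic side effect score drawn from the DILIps (drug-induced liver injury prediction) training data set; call rule not given here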;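 on HepSE cholelithiasis: hepatic side effect score for cholelithiasis, drawn from the DILIps training data for predicting drug-induced liver injury; call rule not given here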;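 on HepSE cirrhosis: cirrhosis hepatic side effect score taken from the DILIps (drug-induced liver injury prediction) training set; call rule not given here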;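 on HepSE elevated liver function tests: hepatic side effect score for raised liver function tests, as recorded in the DILIps training set used for predicting drug-induced liver injury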; on HepSE hepatic failure: call rule not given here;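 on HepSE hepatomegaly: hepatic side effect score for hepatomegaly, taken from the training set of the DILIps drug-induced liver injury prediction system; call rule not given here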
[3] = system: Hepatotoxicity; remark: listed apart in the source;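 on HepSE bilirubinemia: bilirubinemia hepatic side effect score drawn from the DILIps training data, a prediction system for drug-induced liver injury; call rule not given here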;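 on HepSE cholecystitis: Cholecystitis-related hepatic side effect score drawn from the DILIps (drug-induced liver injury prediction) training data set; call rule not given here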;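 on HepSE cholelithiasis: hepatic side effect score for cholelithiasis, drawn from the DILIps training data for predicting drug-induced liver injury; call rule not given here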;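 on HepSE cirrhosis: cirrhosis hepatic side effect score taken from the DILIps (drug-induced liver injury prediction) training set; call rule not given here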;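 on HepSE elevated liver function tests: hepatic side effect score for raised liver function tests, as recorded in the DILIps training set used for predicting drug-induced liver injury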; on HepSE hepatic failure: call rule not given here
[4] = system: Hepatotoxicity; remark: listed apart in the source;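 on HepSE bilirubinemia: bilirubinemia hepatic side effect score drawn from the DILIps training data, a prediction system for drug-induced liver injury; call rule not given here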;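 on HepSE cholecystitis: Cholecystitis-related hepatic side effect score drawn from the DILIps (drug-induced liver injury prediction) training data set; call rule not given here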;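 on HepSE cholelithiasis: hepatic side effect score for cholelithiasis, drawn from the DILIps training data for predicting drug-induced liver injury; call rule not given here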;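 on HepSE cirrhosis: cirrhosis hepatic side effect score taken from the DILIps (drug-induced liver injury prediction) training set; call rule not given here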;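 on HepSE elevated liver function tests: hepatic side effect score for raised liver function tests, as recorded in the DILIps training set used for predicting drug-induced liver injury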; on HepSE hepatic failure: call rule not given here
[5] = system: Hepatotoxicity; remark: listed apart in the source; on HepSE hepatic failure: call rule not given here
[6] = system: Hepatotoxicity; remark: listed apart in the source; on HepSE hepatic failure: call rule not given here
[7] = system: Hepatotoxicity; remark: listed apart in the source
[8] = system: Hepatotoxicity; remark: listed apart in the source
[9] = system: Hepatotoxicity; remark: listed apart in the source
[10] = system: Hepatotoxicity; remark: listed apart in the source
[11] = system: Hepatotoxicity; remark: listed apart in the source
[12] = system: Hepatotoxicity; remark: listed apart in the source
[13] = system: Hepatotoxicity; remark: listed apart in the source
[14] = system: Hepatotoxicity; remark: listed apart in the source

Row | Structure (SMILES) | HepSE_bilirubinemia [1] | HepSE_cholecystitis [2] | HepSE_cholelithiasis [3] | HepSE_cirrhosis [4] | HepSE_elevated liver function tests [5] | HepSE_hepatic failure [6] | HepSE_hepatic necrosis [7] | HepSE_hepatitis [8] | HepSE_hepatomegaly [9] | HepSE_jaundice [10] | HepSE_liver disease [11] | HepSE_liver fatty [12] | HepSE_liver function tests abnormal [13] | HepSE_Combined Scores [14] | HepSE_bilirubinemia ([1]; Liver) | HepSE_cholecystitis ([2]; Liver) | HepSE_cholelithiasis ([3]; Liver) | HepSE_cirrhosis ([4]; Liver) | HepSE_hepatic failure ([6]; Liver) | HepSE_hepatic necrosis ([7]; Liver) | other results
1 | CC(C)N1CCN(c2ccc(OCC3COC(Cn4cncn4)(c4ccc(Cl)cc4Cl)O3)cc2)CC1 (stereo unspecified) [TERCONAZOLE] | 0 | 0 | 0 | 0 | 0 | 0 | 0 | 0 | 0 | 0 | 0 | 0 | 0 | 0 | – | – | – | – | – | – | –
2 | CN(C)CCOc1ccc(/C(=C(/CCCl)c2ccccc2)c2ccccc2)cc1 [TOREMIFENE] | 0 | 0 | 0 | 0 | 0 | 0 | 0 | 0 | 0 | 1 | 0 | 0 | 1 | 2 | – | – | – | – | – | – | –
3 | CCCc1c2oc(C(=O)[O-])cc(=O)c2cc2c(=O)cc(C(=O)[O-])n(CC)c12.[Na+].[Na+] [NEDOCROMIL SODIUM] | 0 | 0 | 0 | 0 | 0 | 0 | 0 | 0 | 0 | 0 | 0 | 0 | 0 | 0 | – | – | – | – | – | – | –
4 | Clc1ccc(C(Cn2ccnc2)OCc2csc3c(Cl)cccc23)c(Cl)c1 (stereo unspecified) [SERTACONAZOLE] | 0 | 0 | 0 | 0 | 0 | 0 | 0 | 0 | 0 | 0 | 0 | 0 | 0 | 0 | – | – | – | – | – | – | –
5 | C[N+](C)(C)CC(=O)O [BETAINE] | 0 | 0 | 0 | 0 | 0 | 0 | 0 | 0 | 0 | 0 | 0 | 0 | 0 | 0 | – | – | – | – | – | – | –
6 | CC1=C(/C=C/C(C)=C/C=C/C(C)=C/C(=O)O)C(C)(C)CCC1 [TRETINOIN] | 0 | 0 | 0 | 0 | 0 | 0 | 0 | 1 | 0 | 0 | 1 | 0 | 0 | 2 | – | – | – | – | – | – | –
7 | CN1C(C(=O)Nc2ccccn2)=C(O)c2ccccc2S1(=O)=O [PIROXICAM] | 0 | 0 | 0 | 0 | 0 | 1 | 0 | – | 0 | 1 | 0 | 0 | 0 | 3 | – | – | – | – | – | – | –
8 | CN(C)CCOC(c1ccccc1)c1ccccc1 [DIPHENHYDRAMINE] | – | – | – | – | – | – | – | – | – | – | – | – | – | – | 0 | 0 | 0 | 0 | 0 | 0 | HepSE_hepatitis ([8]; Liver): 0; HepSE_hepatomegaly ([9]; Liver): 0; HepSE_jaundice ([10]; Liver): 0; HepSE_liver disease ([11]; Liver): 0; HepSE_liver fatty ([12]; Liver): 0; HepSE_Combined Scores ([14]; Liver): 0
9 | Nc1ccc(S(N)(=O)=O)cc1 [SULFANILAMIDE] | – | – | – | – | – | – | – | – | – | – | – | – | – | – | 0 | 0 | 0 | 0 | 0 | 0 | HepSE_hepatitis ([8]; Liver): 0; HepSE_hepatomegaly ([9]; Liver): 0; HepSE_jaundice ([10]; Liver): 0; HepSE_liver disease ([11]; Liver): 0; HepSE_liver fatty ([12]; Liver): 0; HepSE_Combined Scores ([14]; Liver): 0
10 | O=C(O)COCCN1CCN(C(c2ccccc2)c2ccc(Cl)cc2)CC1 (stereo unspecified) [CETIRIZINE] | – | – | – | – | – | – | – | – | – | – | – | – | – | – | 0 | 0 | 0 | 0 | 0 | 0 | HepSE_hepatitis ([8]; Liver): 1; HepSE_hepatomegaly ([9]; Liver): 0; HepSE_jaundice ([10]; Liver): 1; HepSE_liver disease ([11]; Liver): 0; HepSE_liver fatty ([12]; Liver): 0; HepSE_Combined Scores ([14]; Liver): 2
11 | Clc1ccc2c(c1)CCc1cccnc1C2=C1CCNCC1 [DESLORATADINE] | 0 | 0 | 0 | 0 | – | 0 | 0 | 1 | 0 | 0 | 0 | 0 | – | 1 | – | – | – | – | – | – | –
12 | COc1ccc2cc([C@H](C)C(=O)O)ccc2c1 [NAPROXEN] | – | – | – | – | – | – | – | – | – | – | – | – | – | – | 0 | 1 | 1 | 0 | 1 | 0 | HepSE_hepatitis ([8]; Liver): 1; HepSE_hepatomegaly ([9]; Liver): 0; HepSE_jaundice ([10]; Liver): 1; HepSE_liver disease ([11]; Liver): 0; HepSE_liver fatty ([12]; Liver): 0; HepSE_Combined Scores ([14]; Liver): 6
13 | Cc1ccc(NC(=O)c2ccc(CN3CCN(C)CC3)cc2)cc1Nc1nccc(-c2cccnc2)n1 [IMATINIB] | 0 | 0 | 0 | 0 | – | 1 | 1 | 1 | 0 | 1 | 0 | 0 | – | 4 | – | – | – | – | – | – | –
14 | CN1C(=O)CN=C(c2ccccc2)c2cc(Cl)ccc21 [DIAZEPAM] | – | – | – | – | – | – | – | – | – | – | – | – | – | – | 0 | 0 | 0 | 0 | 0 | 0 | HepSE_hepatitis ([8]; Liver): 0; HepSE_hepatomegaly ([9]; Liver): 0; HepSE_jaundice ([10]; Liver): 1; HepSE_liver disease ([11]; Liver): 0; HepSE_liver fatty ([12]; Liver): 0; HepSE_Combined Scores ([14]; Liver): 1

— ChEMBL document CHEMBL1909294, “Translating clinical findings into knowledge in drug safety evaluation--drug induced liver injury prediction system (DILIps)” (PLoS Comput Biol, 2011)
